# Assay results: paper PMC8791944, “GLUT3 inhibitor discovery through in silico ligand screening and in vivo validation in eukaryotic expression systems” (Scientific Reports, 2022)
# Read-outs that look alike come from different tables or passages of the source.
# Target: T1, GLUT2∆loopS_Q455R (Homo sapiens, UniProt P11168, Q455R, form not given)
# T1 sequence (P11168 1-524 Q455R): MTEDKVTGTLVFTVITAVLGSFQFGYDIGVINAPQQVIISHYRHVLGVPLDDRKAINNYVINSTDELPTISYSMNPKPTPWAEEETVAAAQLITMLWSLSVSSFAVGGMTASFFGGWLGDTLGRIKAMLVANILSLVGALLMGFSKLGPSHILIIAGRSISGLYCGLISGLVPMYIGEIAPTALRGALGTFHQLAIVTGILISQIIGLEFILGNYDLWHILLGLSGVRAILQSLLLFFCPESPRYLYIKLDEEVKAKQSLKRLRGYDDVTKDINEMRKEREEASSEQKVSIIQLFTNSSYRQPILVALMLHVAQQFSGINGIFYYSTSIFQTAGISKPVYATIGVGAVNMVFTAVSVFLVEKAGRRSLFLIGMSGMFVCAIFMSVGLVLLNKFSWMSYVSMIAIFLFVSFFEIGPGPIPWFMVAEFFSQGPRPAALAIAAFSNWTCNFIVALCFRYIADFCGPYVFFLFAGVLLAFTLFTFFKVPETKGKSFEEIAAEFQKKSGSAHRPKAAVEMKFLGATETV
# Test: Glucose transport assay, GLUT2∆loopS_Q455R expressed in hxt^0 yeast cells EBY.S7
# Type: cell-based
# From the text: The most studied GLUTs are Class 1 GLUTs (GLUT1-4) and a Class 2 GLUT, GLUT5 (a fructose-only transporter). GLUT3 sequence homology and identity is 79% and 64%, 71% and 52%, 74% and 57%, and 60% and 38% with GLUT1, GLUT2, GLUT4, and GLUT5, respectively. The hxt^0 yeast cell systems expressing functional GLUT1-4[65],[69] and GLUT5[66] allow us to determine the in vivo transport activity (substrate uptake by a GLUT into whole cells) for individual GLUTs and establish GLUT3 inhibitor selectivity for these transporters. The transport assay was performed as described for GLUT3, but at the substrate concentrations that correspond to the KM for each GLUT (i.e., 5 mM glucose for GLUT1 and GLUT4[65], 15 mM glucose for GLUT2∆loopS_Q455R[63], and 10 mM fructose for GLUT5S72Y[66]).
# The transport activity was assayed as the substrate uptake in hexose transporter-deficient yeast cells expressing functional GLUT1[65], GLUT2[69], GLUT4[65], or GLUT5[66]. Substrate final concentration in the assay matched the corresponding substrate KM and was 5 mM glucose for GLUT1 and GLUT4, 15 mM glucose for GLUT2∆loopS_Q455R, and 10 mM fructose for GLUT5S72Y. Transport assay was initiated by the addition of C^14-labeled substrate and stopped after 10 min (see “Materials and methods” for details). […] Standard deviations for experimental points come from at least three independent measurements.
# The plasmids containing functional constructs of GLUT1-5 were transformed in the corresponding hxt^0 strains[65],[66],[73] (EBY.VW4000 for GLUT5S72Y, EBY.S7 for GLUT1, GLUT2∆loopS_Q455R, GLUT3 and GLUT3S66Y, and SDY.022 for GLUT4) and grown on 2% (w/v) agar plates of the respective media supplemented with 1% (w/v) maltose. An initial culture of ~ 10 ml was started with a few colonies and grown for 2–3 days if the media was SC-uracil with 1% (w/v) maltose (GLUT1, GLUT3, GLUT4) or 1–2 days if the media was YEP with 1% (w/v) maltose and 100 µg/ml geneticin G418 (GLUT2∆loopS_Q455R and GLUT5S72Y). Cells were washed once in the corresponding media in which maltose was substituted with 0.1–2% hexose substrate for the expressing GLUT (i.e., SC-uracil, 2% (w/v) glucose for GLUT1; SC-uracil, 0.2% (w/v/) glucose for GLUT3 and GLUT4; YEP, 0.2% (w/v) glucose, 100 µg/ml geneticin G418 for GLUT2∆loopS_Q455R, and YEP, 2% (w/v) fructose for GLUT5 S72Y). Then, cells were transferred in the same media so that OD600nm ~ 0.5 and grown further for 1–2 days.
# For transport activity assay, cells in the hexose media were centrifuged (1000×g, 5 min, room temperature), washed once with PBS buffer (10 mM Na2HPO4, 1.8 mM KH2PO4, 2.7 mM KCl, 137 mM NaCl, pH 7.4), and resuspended in PBS buffer at an OD600nm ~ 10; each assay contained 100 µl of this cell solution. Transport activity assay was started by adding C^14-hexose at a substrate concentration corresponding to the respective KM (5 mM glucose for GLUT1 or GLUT4, 3 mM glucose for GLUT3 or 1.5 mM glucose for GLUT3S66Y, 15 mM glucose for GLUT2∆loopS_Q455R, and 10 mM fructose for GLUT5S72Y); for determining the glucose KM in GLUT3 and GLUT3S66Y, substrate concentrations were varied accordingly. […] The filtration membranes were transferred into scintillation vials with 10 ml of Scintillation Solution (BioSafeII; Research Products International, Mount Prospect, IL, USA), and vortexed briefly. The radioactivity was determined with a scintillation counter (Tri-carb 2900TR, Perkin Elmer, USA).
# [1] = GLUT2∆loopS_Q455R in hxt^0 yeast cells, 15 mM glucose; read-out: IC50 for GLUT2 transport inhibition
SMILES,IC50 [1] [µM],"Potency for GLUT2 relative to GLUT3 (IC50 ratio, weaker for GLUT2) (IC50 GLUT2 versus IC50 GLUT3)","IC50 (read-out: IC50 for GLUT2 transport inhibition; GLUT2∆loopS_Q455R in hxt^0 yeast cells, 15 mM glucose) [µM]"
"CC(=O)Nc1ccc(S(=O)(=O)Nc2ccc(Nc3cc(N(C)C)nc(C)n3)cc2)cc1 [G3iA, N-(4-{[(4-{[6-(dimethylamino)-2-methylpyrimidin-4-yl]amino}phenyl)amino]sulfonyl}phenyl)acetamide]",29.4 ± 6.3,~ fourfold,
Cc1cccnc1OC1CCN(c2cc(N3CCCC3CO)ncn2)CC1 (stereo not shown) [G3iC],> 50,,
Cc1cc(NC(=O)CCC2Cc3ccccc3NC2=O)nc(-c2ccccc2)n1 (stereo not shown) [G3iD],40 ± 3.7,,
"O=C(Nc1cccc(Cl)c1)c1cccc(NC(=O)c2cccc([N+](=O)[O-])c2)c1 [G3iE, N-{3-[(3-chloroanilino)carbonyl]phenyl}-3-nitrobenzamide]",> 50,,
"COc1ccccc1-n1c(/C=C/c2ccc(O)cc2)nc2ccc(Br)cc2c1=O [G3iB, 6-bromo-2-[(E)-2-(4-hydroxyphenyl)ethenyl]-3-(2-methoxyphenyl)quinazolin-4(3H)-one]",,,> 50
Cc1ccccc1CN(Cc1nnc(C(C)(C)C)o1)c1ccc2nc(O)[nH]c2c1 [G3iF],24.7 ± 8.4,,
